Laboratory results taken from patent US20110237670A1, “IMPROVEMENT OF NORMAL COGNITIVE FUNCTION” (priority 2008, published 2011).

Legend:
Male NMRI mice [1] = assay: habituation of acoustic startle response (non-associative learning); type: in vivo; settings: acute 1000 mg/kg intraperitoneally, block 6, versus saline, p<0.05, FIG. 2
Procedure: (§1) Male NMRI mice (Charles River, Germany, 25-35 g) were used in examples 1, 2 and 3. The animals were housed nine per cage in a colony room under constant temperature (20±1° C.) and humidity (50±5%). Animals were allowed to acclimatize for at least one week prior to behavioral testing. The daylight cycle was maintained artificially (lights on from 0600 to 1800 hours) and behavioral experiments were conducted during the light phase. The Ethics Committee for Animal Experiments, Goteborg, Sweden, approved all experimental procedures used in the present study.
The model used to measure non-associative learning was habituation of acoustic startle response. Habituation refers to the decrease in response to repeated presentation of identical stimuli and the model used for this test is also translational in nature. Since habituation is a measure of how the brain filter outs irrelevant stimuli and focus selectively on important stimuli, it is thought to be a prerequisite for other forms of learning and cognitive functions.
Acoustic startle was recorded using a MOPS 3 startle response recording system (see example 1). […]
The first startle pulse response was omitted from statistical analysis since it was too variable to achieve significance. […] Habituation, the change in mean response amplitude over time, was calculated using the formula: […]

[2] = in vivo, cited from earlier work
[3] = test system: patients with schizophrenia; settings: adjunctive treatment, 6 g/day; cited from earlier work
Male NMRI mice [4] = assay: prepulse inhibition (PPI) of acoustic startle response model (pre-attentive information processing); type: in vivo; settings: for increase in capacity to filter information pre-attentively (absolute change in PPI at day 1 compared to matching test): acute administration, day 1, FIG. 1B; for effect on PPI response: day 1 and day 3, prepulse level 9 dB over background noise
Text: One way to elucidate how substances affect our cognitive function is to measure how the brain processes information. Pre-attentive information processing is thought to be important for selective and efficient processing of sensory information and for coherent cognitive operations, and thus for memory and cognitive functions. Pre-attentive information processing can be assessed by using the prepulse inhibition (PPI) of acoustic startle response model. One major advantage of the PPI model is that it is a translational behavior. […] PPI is the reduction in reflex response to an intense stimulus when this stimulus is immediately preceded (30-500 ms) by a weak prestimulus. The presentation of the prestimulus, although not strong enough to elicit a measurable response by itself, evokes a short lasting sensory gating process in the brain, which is manifested by the attenuated response to the successive intense stimulus. PPI is hypothesized to reflect the ability of the central nervous system to filter out distracting and irrelevant stimuli before it reaches the cortex. An increased, i.e. improved, PPI could result in better inhibitory mechanisms that filter or gate intrinsic and extrinsic stimuli prior to higher order processing. […] Furthermore, PPI and other cognitive functions are regulated by the same cortico-striato-pallido-thalamic circuitry and association between these different cognitive domains has been shown.
as §1
Acoustic startle was recorded using a MOPS 3 startle response recording system (Metod och Produkt Svenska AB, Sweden). The animals were placed in small plexi glass cages (10×5.5×6 cm) that were suspended at the top of a piston. A movement of the animal in the cage caused a displacement of the piston, the acceleration of which was registered by a piezo-electric accelerometer. This signal was sampled and digitized by a microcomputer that also controlled the delivery of acoustic stimuli. Startle amplitude was defined as the maximum signal amplitude occurring 8-30 ms after the startle-eliciting stimulus. Four cages were used simultaneously and each cage was housed in a dimly lit and sound attenuated cabinet (52×42×38 cm). The cages were calibrated for equal sensitivity prior to testing and a mouse was always tested in the same cage at subsequent tests. The acoustic stimuli consisted of white noise, which was delivered by two high-frequency loudspeakers built into the ceiling of the cabinet.
Each test session started with an 8-min adaptation period containing only white background noise at 65 dB (A). Startle pulse was set to 105 dB (A) and prepulse intensities to 3, 9 and 12 dB (A) above background noise. Duration of acoustic stimuli was set to 20 ms for both prepulses and startle pulses and interstimulus interval (ISI) was set to 40 ms. Following the adaptation period the animals were subjected to a series of 5 startle pulse-alone trials that were omitted from the analysis since they only served to accommodate the animals to the sudden stimulus onset. The animals were then subjected to a pseudo-randomized combination of 3 prepulse-alone trials for each prepulse intensity, 45 pulse-alone trials and 15 prepulse+pulse trials for each prepulse intensity. Trials were separated by 5-15 s intervals.
All mice were first subjected to a pre-test to ensure that they expressed basal startle reactivity.

humans = settings: cited from earlier work
mice = settings: pre-attentive information filtering; cited from earlier work
Male NMRI mice [5] = assay: novel object recognition test (learning and memory formation); type: in vivo
Procedure: as §1
There are several learning and memory tasks that are appropriate for study in rodents. One widely used is the novel object recognition test. The test involves exposing the rodent to two identical objects for a brief period of time (the introductory session). […] Furthermore, very similar aspects of memory formation (involving encoding, con solidation and retrieval of information) can be assessed in human using the Brief Visual Memory Task-Revised (BVMT-R). […]
The object exploration time was manually scored from the videotapes. […]
Data are expressed as means and standard errors of the mean (S.E.M.). […]
A discrimination index was calculated for each animal: Tn/(Tf+Tn)*100 […]

healthy volunteers = settings: human, in vivo; cited from earlier work
[6] = test system: patients with Alzheimer's disease; settings: human, in vivo; cited from earlier work

Row | SMILES | habituation of the acoustic startle response (Male NMRI mice [1]) | oral bioavailability ([2]; po) | blood-brain barrier penetration [2] | effect on symptoms in patients with schizophrenia [3] | pulse-alone response (acoustic startle; sedative properties) (Male NMRI mice [4]; 500-2000 mg/kg) | increase in capacity to filter information pre-attentively (absolute change in PPI at day 1 compared to matching test) (Male NMRI mice [4]; L-lysine 500 mg/kg intraperitoneally) [%] | increase in capacity to filter information pre-attentively (absolute change in PPI at day 1 compared to matching test) (Male NMRI mice [4]; L-lysine 1000 mg/kg intraperitoneally) [%] | increase in capacity to filter information pre-attentively (absolute change in PPI at day 1 compared to matching test) (Male NMRI mice [4]; L-lysine 2000 mg/kg intraperitoneally) [%] | final PPI test at day 9 (Male NMRI mice [4]; after a 6-day washout period) | effect on PPI response (Male NMRI mice [4]; doses 500 mg/kg and 1000 mg/kg) | effect on PPI response (Male NMRI mice [4]; highest dose 2000 mg/kg) | effect of test day on PPI (day 1 versus day 3, repeated administration) (Male NMRI mice [4]; once daily for three days, 500-2000 mg/kg) | reported adverse effects in humans (humans; L-lysine treatment in general) | adverse effects in long-term studies (humans; administration up to 2 years) | reported adverse effects in short-term human studies (humans; doses as high as 40 g/day, resolved as the dose was decreased) | effect on cognitive impairments induced by phencyclidine (mice) | time exploring the two similar objects during the introductory session versus saline (Male NMRI mice [5]; 1000 mg/kg intraperitoneally 30 min before the introductory session) | exploration of the familiar object, recognition session compared with introductory session (Male NMRI mice [5]; 1000 mg/kg intraperitoneally, 90 min delay, p<0.05, FIG. 3B) | effect on cognition in healthy volunteers (healthy volunteers) | effect on cognition in patients with Alzheimer's disease [6]
1 | NCCCC[C@H](N)C(=O)O [L-lysine] | improves the brain capacity to filter out irrelevant information | very good oral bioavailability | easily penetrates the blood-brain barrier | possibly can improve some symptoms | did not affect the pulse-alone response | 28.7 | 51.3 | 9.0 | did not demonstrate any significant effects | improved the PPI response in a dose related manner | did not affect PPI significantly | no significant effect of test day | transient gastrointestinal problems in a few patients | have not revealed any adverse effects | abdominal cramps and transient diarrhea | can restore cognitive impairments | no difference | significantly less exploration of the familiar object |  | 
2 | COc1cc2c(cc1OC)C(=O)C(CC1CCN(Cc3ccccc3)CC1)C2 (stereo not shown) [Donezepil] |  |  |  |  |  |  |  |  |  |  |  |  |  |  |  |  |  |  | no or detrimental effects on cognition | enhance cognition
3 | CC12CC3CC(C)(C1)CC(N)(C3)C2 [Memantine] |  |  |  |  |  |  |  |  |  |  |  |  |  |  |  |  |  |  | no or detrimental effects on cognition | enhance cognition
